Results from PubChem BioAssay (NCI).
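Protocol summary: plate cells (96-well), add compound at 5 concentrations, incubate 48 h, interpolate endpoints linearly. TGI denotes the concentration required for complete inhibition of growth.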

Tests used:
Assay in all cases: growth of human tumour cells (NCI), 48 h
A549 NSCLC = system: A549 NSCLC
ACHN renal = system: ACHN renal
CAKI-1 renal = system: CAKI-1 renal
CCRF-CEM leukemia = system: CCRF-CEM leukemia
COLO 205 colon = system: COLO 205 colon
DLD-1 colon = system: DLD-1 colon
EKVX NSCLC = system: EKVX NSCLC
HCC-2998 colon = system: HCC-2998 colon
HCT-116 colon = system: HCT-116 colon
HCT-15 colon = system: HCT-15 colon
HL-60(TB) leukemia = system: HL-60(TB) leukemia
HOP-18 NSCLC = system: HOP-18 NSCLC
HOP-62 NSCLC = system: HOP-62 NSCLC
HOP-92 NSCLC = system: HOP-92 NSCLC
HT29 colon = system: HT29 colon
IGROV1 ovarian = system: IGROV1 ovarian
K-562 leukemia = system: K-562 leukemia
KM12 colon = system: KM12 colon
KM20L2 colon = system: KM20L2 colon
LOX IMVI melanoma = system: LOX IMVI melanoma
LXFL 529 NSCLC = system: LXFL 529 NSCLC
M14 melanoma = system: M14 melanoma
M19-MEL melanoma = system: M19-MEL melanoma
MALME-3M melanoma = system: MALME-3M melanoma
MOLT-4 leukemia = system: MOLT-4 leukemia
NCI-H226 lung = system: NCI-H226 lung
NCI-H23 lung = system: NCI-H23 lung
NCI-H460 lung = system: NCI-H460 lung
NCI-H522 lung = system: NCI-H522 lung
OVCAR-3 ovarian = system: OVCAR-3 ovarian
OVCAR-4 ovarian = system: OVCAR-4 ovarian
OVCAR-5 ovarian = system: OVCAR-5 ovarian
OVCAR-8 ovarian = system: OVCAR-8 ovarian
RPMI-8226 leukemia = system: RPMI-8226 leukemia
RXF 393 renal = system: RXF 393 renal
SF-268 CNS = system: SF-268 CNS
SF-539 CNS = system: SF-539 CNS
SK-MEL-2 melanoma = system: SK-MEL-2 melanoma
SK-MEL-28 melanoma = system: SK-MEL-28 melanoma
SK-OV-3 ovarian = system: SK-OV-3 ovarian
SN12C renal = system: SN12C renal
SNB-19 CNS = system: SNB-19 CNS
SR leukemia = system: SR leukemia
SW-620 colon = system: SW-620 colon
TK-10 renal = system: TK-10 renal
U251 CNS = system: U251 CNS
UACC-62 melanoma = system: UACC-62 melanoma
UO-31 renal = system: UO-31 renal
XF 498 CNS = system: XF 498 CNS
786-0 renal = system: 786-0 renal
A498 renal = system: A498 renal
DMS 114 small cell lung = system: DMS 114 small cell lung
DMS 273 small cell lung = system: DMS 273 small cell lung
SF-295 CNS = system: SF-295 CNS
SK-MEL-5 melanoma = system: SK-MEL-5 melanoma
SNB-75 CNS = system: SNB-75 CNS
SNB-78 CNS = system: SNB-78 CNS
UACC-257 melanoma = system: UACC-257 melanoma

C1=Nc2ccccc2Cn2nncc21
TGI (A549 NSCLC): > 100 µM | TGI (ACHN renal): > 100 µM | TGI (CAKI-1 renal): > 100 µM | TGI (CCRF-CEM leukemia): > 100 µM | TGI (COLO 205 colon): > 100 µM | TGI (DLD-1 colon): > 100 µM | TGI (EKVX NSCLC): > 100 µM | TGI (HCC-2998 colon): > 100 µM | TGI (HCT-116 colon): > 100 µM | TGI (HCT-15 colon): > 100 µM | TGI (HL-60(TB) leukemia): > 100 µM | TGI (HOP-18 NSCLC): > 100 µM | TGI (HOP-62 NSCLC): > 100 µM | TGI (HOP-92 NSCLC): > 100 µM | TGI (HT29 colon): > 100 µM | TGI (IGROV1 ovarian): > 100 µM | TGI (K-562 leukemia): > 100 µM | TGI (KM12 colon): > 100 µM | TGI (KM20L2 colon): > 100 µM | TGI (LOX IMVI melanoma): > 100 µM | TGI (LXFL 529 NSCLC): > 100 µM | TGI (M14 melanoma): > 100 µM | TGI (M19-MEL melanoma): > 100 µM | TGI (MALME-3M melanoma): > 100 µM | TGI (MOLT-4 leukemia): > 100 µM | TGI (NCI-H226 lung): > 100 µM | TGI (NCI-H23 lung): > 100 µM | TGI (NCI-H460 lung): > 100 µM | TGI (NCI-H522 lung): > 100 µM | TGI (OVCAR-3 ovarian): > 100 µM | TGI (OVCAR-4 ovarian): > 100 µM | TGI (OVCAR-5 ovarian): > 100 µM | TGI (OVCAR-8 ovarian): > 100 µM | TGI (RPMI-8226 leukemia): > 100 µM | TGI (RXF 393 renal): > 100 µM | TGI (SF-268 CNS): > 100 µM | TGI (SF-539 CNS): > 100 µM | TGI (SK-MEL-2 melanoma): > 100 µM | TGI (SK-MEL-28 melanoma): > 100 µM | TGI (SK-OV-3 ovarian): > 100 µM | TGI (SN12C renal): > 100 µM | TGI (SNB-19 CNS): > 100 µM | TGI (SR leukemia): > 100 µM | TGI (SW-620 colon): > 100 µM | TGI (TK-10 renal): > 100 µM | TGI (U251 CNS): > 100 µM | TGI (UACC-62 melanoma): 55.3 µM | TGI (UO-31 renal): > 100 µM | TGI (XF 498 CNS): > 100 µM

O=C(CN(Cc1ccccc1)Cc1ccccc1)N1CCc2c([nH]c3ccccc23)C1c1cccnc1 (configuration not stated)
TGI (786-0 renal): 33.4 µM | TGI (A498 renal): 61.5 µM | TGI (A549 NSCLC): > 100 µM | TGI (ACHN renal): > 100 µM | TGI (CAKI-1 renal): > 100 µM | TGI (CCRF-CEM leukemia): 41.4 µM | TGI (DLD-1 colon): > 100 µM | TGI (DMS 114 small cell lung): 72.8 µM | TGI (DMS 273 small cell lung): 82.8 µM | TGI (EKVX NSCLC): > 100 µM | TGI (HCC-2998 colon): > 100 µM | TGI (HCT-116 colon): 16.2 µM | TGI (HCT-15 colon): > 100 µM | TGI (HL-60(TB) leukemia): 4.17 µM | TGI (HOP-18 NSCLC): > 100 µM | TGI (HOP-62 NSCLC): > 100 µM | TGI (HOP-92 NSCLC): 12.8 µM | TGI (HT29 colon): 19.7 µM | TGI (IGROV1 ovarian): > 100 µM | TGI (K-562 leukemia): > 100 µM | TGI (KM12 colon): 26.3 µM | TGI (KM20L2 colon): 25.5 µM | TGI (LOX IMVI melanoma): 39.5 µM | TGI (LXFL 529 NSCLC): > 100 µM | TGI (M14 melanoma): 14.2 µM | TGI (M19-MEL melanoma): 31.4 µM | TGI (MOLT-4 leukemia): 6.88 µM | TGI (NCI-H23 lung): 79.3 µM | TGI (NCI-H460 lung): 89.9 µM | TGI (NCI-H522 lung): 73.6 µM | TGI (OVCAR-3 ovarian): 34 µM | TGI (OVCAR-4 ovarian): > 100 µM | TGI (OVCAR-5 ovarian): 34.7 µM | TGI (OVCAR-8 ovarian): > 100 µM | TGI (RPMI-8226 leukemia): 4.53 µM | TGI (SF-268 CNS): > 100 µM | TGI (SF-295 CNS): > 100 µM | TGI (SF-539 CNS): 26.6 µM | TGI (SK-MEL-28 melanoma): > 100 µM | TGI (SK-MEL-5 melanoma): 20.1 µM | TGI (SK-OV-3 ovarian): > 100 µM | TGI (SN12C renal): 8.64 µM | TGI (SNB-19 CNS): > 100 µM | TGI (SNB-75 CNS): 81.9 µM | TGI (SNB-78 CNS): > 100 µM | TGI (SR leukemia): 30.6 µM | TGI (SW-620 colon): > 100 µM | TGI (TK-10 renal): > 100 µM | TGI (U251 CNS): 26.7 µM | TGI (UACC-257 melanoma): > 100 µM | TGI (UACC-62 melanoma): 30.7 µM | TGI (UO-31 renal): 9.54 µM | TGI (XF 498 CNS): 65.8 µM
